Measurements as given in patent publication US20110212958A1, “FATTY ACID RALOXIFENE DERIVATIVES AND THEIR USES” (CATABASIS PHARMACEUTICALS, INC., priority 2010, published 2011).

System: NF-κB
Assay: NF-κB luciferase reporter assay in LPS-stimulated RAW 264.7 macrophages
Type: cell-based
Conditions: Mus musculus, RAW264.7; RAW 264.7 cells with 3× NFkB response element luciferase reporter; 2 hour pretreatment, 200 ng/ml LPS for 3 hours; 6 dose point titrations in triplicate
Protocol: RAW 264.7 cells stably expressing a 3× NFkB response elemement-drive luciferase reporter were seeded into 96 well plates in sera-free medium (Optimem) 18 hours prior to compound application. Compounds of the invention were prepared by first making 100 mM stock solutions in EtOH. Stock solutions were then diluted 1:100 in low LPS FBS (Gemini BenchMark 100-106), mixed vigorously and allowed to incubate at room temperature for 30 minutes. 1:2 serial dilutions were then made in FBS supplemented with 1% EtOH, mixed vigorously, and again allowed to incubate at room temperature for 30 minutes before adding to RAW 264.7 reporter cells (final concentrations: 10% FBS, 100 uM highest compound dilution, 0.1% EtOH) for a 2 hour pretreatment prior to stimulation with LPS. Cells were then stimulated with 200 ng/ml LPS or vehicle control for 3 hours in the presence of the compounds of the invention. A set of six vehicles was left unstimulated with LPS in order to measure the assay floor. […] After the 3 h incubation period with LPS, cell viability was measured by reading fluorescence (excitation 550 nm, emission 595 nm) with a Perkin Elmer Victor V plate reader. […] Luciferase activity was measured with the Perkin Elmer Victor V plate reader. NF-κB activity was expressed as a percent of the vehicle control wells (stimulated with LPS). […]

Question: For `CC/C=C\C/C=C\C/C=C\C/C=C\C/C=C\C/C=C\CCC(=O)NCCNC(=O)Oc1ccc2c(C(=O)c3ccc(OCCN4CCOCC4)cc3)c(-c3ccc(O)cc3)sc2c1` [III-4, 2-(4-hydroxyphenyl)-3-(4-(2-morpholinoethoxy)benzoyl)benzo[b]thiophen-6-yl 2-(4Z,7Z,10Z,13Z,16Z,19Z)-docosa-4,7,10,13,16,19-hexaenamidoethylcarbamate], which IC50 is on record?
Answer: ~50 µM
